Source: US20150139949A1, “ANTI-VIRAL COMBINATION THERAPY” (priority 2011, published 2015)
Read-outs that look alike come from different tables or passages of the source.

Legend:
hELOVL6 = molecular target: T1, hELOVL6 (Homo sapiens, UniProt Q9H5J4); details: read-out: hELOVL6 IC50; cited from earlier work
T1 sequence (Q9H5J4 1-265): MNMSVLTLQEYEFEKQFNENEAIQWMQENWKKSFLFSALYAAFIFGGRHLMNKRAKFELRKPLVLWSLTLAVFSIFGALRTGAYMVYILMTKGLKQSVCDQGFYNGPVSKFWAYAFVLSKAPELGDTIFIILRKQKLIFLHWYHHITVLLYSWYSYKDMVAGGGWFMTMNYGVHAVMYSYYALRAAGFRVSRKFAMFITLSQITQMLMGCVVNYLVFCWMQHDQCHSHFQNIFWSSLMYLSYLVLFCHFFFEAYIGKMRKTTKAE

hELOVL3 = molecular target: T2, hELOVL3 (Homo sapiens, UniProt Q9HB03); details: cited from earlier work
T2 sequence (Q9HB03 1-270): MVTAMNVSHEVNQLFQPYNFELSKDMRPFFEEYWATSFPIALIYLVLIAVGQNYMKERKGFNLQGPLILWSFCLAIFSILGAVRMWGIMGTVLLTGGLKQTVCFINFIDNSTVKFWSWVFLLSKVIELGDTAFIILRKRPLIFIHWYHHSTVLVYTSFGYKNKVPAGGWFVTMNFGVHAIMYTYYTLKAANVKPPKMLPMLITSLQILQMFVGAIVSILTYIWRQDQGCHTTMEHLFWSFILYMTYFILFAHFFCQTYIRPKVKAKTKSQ

HCMV = HCMV replication / titer in infected fibroblasts; format: cell-based
MDCK cells = experiment: host cell toxicity in influenza A experiment; format: cell-based; details: 0.5 mM and 1 mM, 24 hours
adenovirus = adenovirus replication / titer; format: cell-based; details: for decrease of adenovirus titer: MRC2 cells
influenza A = influenza A replication; format: cell-based
[1] = tested on: cholesterol ester (CE) synthesis; details: cited from earlier work
[2] = tested on: triacylglycerol (TG) synthesis; details: cited from earlier work
HCV [3] = experiment: HCV replication in cell cultures, ACC inhibitor combined with HCV protease inhibitor (Example 1); format: cell-based
Experimental: HCV encoded proteolytic activity is required for infection and replication. The present example concerns the combined use of an ACC inhibitors (e.g., TOFA) and an HCV protease inihibitor (e.g., boceprevir) to antagonize viral replication. In each assay, various concentrations of TOFA are combined with various concentrations of boceprevir and cell cultures exposed to HCV are assayed for virus replication. In one series of tested combinations, a physiological concentration of boceprivir is held constant as the dose of TOFA is increased. Control cultures are treated with no drug, boceprivir alone or the various concentrations of TOFA alone. Samples are taken at 24, 48, 72 and 96 hours after initiation of drug treatment. The antiviral effect of boceprivir plus each concentration of TOFA is then compared to the activity of boceprivir alone or the various concentrations of TOFA alone. The relative toxicity of the different combinations is also assayed.

[4] = cited from earlier work
HCV [5] = experiment: HCV replication; format: cell-based, hepatitis C virus
[6] = tested on: herpes simplex virus-1 (HSV-1); experiment: HSV-1 replication; format: cell-based; details: nanomolar concentrations

## CCCCS(=O)(=O)N1C[C@H]2CC[C@@H]1[C@H](C(=O)Nc1ccc(OC)cc1)C2
hELOVL6
  IC50: 1.71 µM

## CC(C)Oc1ccc(NC(=O)[C@@H]2C[C@@H]3CC[C@H]2N(S(=O)(=O)c2cn(C)cn2)C3)cc1
hELOVL3
  IC50: 1.51 µM
hELOVL6
  IC50: 0.22 µM

## CCCCS(=O)(=O)N1CCC[C@@H](C(=O)Nc2ccc(OC(C)C)cc2)C1
hELOVL6
  IC50: 0.93 µM

## NOCC(=O)O [AOAA, aminooxyacetic acid]
HCMV
  inhibition of HCMV replication: inhibited the replication
HCMV; 0.5 mM
  decrease of HCMV replication: 100 fold
MDCK cells
  host cell toxicity: no evidence of host cell toxicity
adenovirus
  inhibition of adenovirus replication: inhibited the replication
adenovirus; 0.5 mM
  decrease of adenovirus titer: 20 fold
adenovirus; 1 mM
  decrease of adenovirus titer: 500 fold
Influenza A
  decrease of influenza A replication: at least 1000 fold
  inhibition of influenza A replication: inhibited the replication

## N=C(N)NCc1cccc([131I])c1 [MIBG, meta-iodobenzylguanidine]
HCMV; 50 μM, infected MRCS fibroblasts
  reduction of HCMV titer: about 70%

## CCC(C)[C@@H]1C(=O)/C(=C(/O)[C@@H]2[C@@H]3[C@H](C)C[C@H](C)C[C@@H]3C=C[C@@H]2[C@]2(C)O[C@H]2C)C(=O)N1C (stereo partly drawn) [PF-1052]
[1]
  inhibition of CE synthesis: inhibits both CE and TG synthesis in a dose dependent manner
[2]
  inhibition of TG synthesis: inhibits both CE and TG synthesis in a dose dependent manner
HCMV; 10 μM
  inhibition of HCMV replication: profoundly inhibits

## CCCCCCCCCCCCCCOc1ccc(C(=O)O)o1 [TOFA, 5-(tetradecyloxy)-2-furoic acid]
HCV [3]; given TOFA concentration, boceprivir also present
  magnitude of the therapeutic effect: increased
HCV [3]; in the presence of a pharmacologically acceptable concentration of boceprivir
  concentration of TOFA required to produce a 10-fold reduction in HCV replication: markedly reduced
[4]; rat, in vivo, 100 mg/kg/day
  adverse effects: no adverse effects are observed
[4]; rat, in vivo, 150 mg/kg/day
  teratogenicity: not teratogenic
[4]; rats, oral
  oral LD50: greater than 5,000 mg/kg
HCV [5]
  inhibition of HCV replication: inhibited the replication
HCMV
  inhibition of HCMV replication: inhibited the replication

## O=C(Nc1ccc(C(F)(F)F)cc1)N1C2CCC1CC(S(=O)(=O)c1ccccn1)C2 (stereo not drawn) [endo-1w]
hELOVL3
  IC50: 6.94 µM
hELOVL6
  IC50: 0.079 µM

## COC(=O)c1c2c(c3ccccc3c1O)OC(C)(C)C=C2 [rubimaillin]
[1]
  inhibition of CE synthesis: selectively inhibits CE synthesis

## CCC/C=C/C/C=C/C=C/C=N/NN=O [triacsin C]
[6]
  inhibition of HSV-1 replication: inhibit the replication
HCV [5]; nanomolar concentrations
  inhibition of HCV replication: inhibit the replication
HCMV; nanomolar concentrations
  inhibition of HCMV replication: inhibit the replication
Influenza A; nanomolar concentrations
  inhibition of influenza A replication: inhibit the replication
